Test results: article PMC9867837 (Cancer letters, 2022)
pIC50: −log10 of the molar value.

Tests used:
pYStat3C426A = molecular target: T1, pYStat3C426A (Homo sapiens, UniProt P40763, C426A); experiment: EMSA with purified mutant pYStat3C426A; format: biochemical
T1 construct: made in house; host or cells: E. coli BL21(DE3) TKB1 (inducible tyrosine kinase)
Description: This construct was used to generate the mutants, Stat3C328A, Stat3C426A, Stat3C468A, and Stat3C542S, as described in detail in Supplementary Information “Methods”.
The expression of un-phosphorylated and tyrosine phosphorylated His-tagged recombinant wtStat3 and mutant Stat3 proteins in BL21 (DE3) bacterial cells is described in detail in Supplementary Information “Methods”.
Given the MS data, we conducted site-directed mutagenesis analysis for the effects of Cys mutations (Cys-to-Ala or Cys-to-Ser mutations) on the inhibitory activities or potencies of the compounds. […] Purified, phosphorylated wild-type (wt)Stat3, and phosphorylated mutants, Stat3C328A, Stat3C426A, Stat3C468A, and Stat3C542S protein samples of equal amounts were pre-incubated with or without 3 μM H182 for 30 min at room temperature prior to incubation with the radiolabeled hSIE probe that binds Stat3 and subjecting to EMSA analysis. […] Focusing on the C426 and C468, we next conducted dose-response studies for effects of H182 on Stat3C426A and Stat3C468A. […] Equal proteins used in the DNA-binding assay/EMSA analysis are shown by SDS-PAGE Coomassie staining (Fig. 3B, lower). […]
(§1) In another case, the nuclear extract was pre-incubated with the radiolabeled probe for 30 min at 30 °C prior to incubation with increasing concentration of H182 at room temperature for 30 min and subjecting to EMSA analysis. Bands corresponding to Stats DNA- binding activities were scanned and quantified using ImageJ and plotted as a percentage of control (vehicle) against the concentration of the inhibitor, from which the IC50 values were derived . […]
(§2) These studies were performed as previously reported using the v-Src -transformed NIH3T3/v-Src fibroblasts [1 -5] . […] Luciferase activity was normalized to total protein concentration of cell lysate, which was determined by Bradford assay (Bio-Rad, Hercules, CA) . […]

[1] = test system: Stat3-dependent luciferase reporter, pLucTKS3; experiment: Stat3-dependent luciferase reporter pLucTKS3 in NIH3T3/v-Src; format: cell-based, mouse; conditions: 1–3 μM H182 for 1 h
Procedure: These studies were performed as previously reported using the v-Src-transformed NIH3T3/v-Src fibroblasts. Details are presented in Supplementary Information, “Methods”.
We next evaluated the effects of the azetidine compound, H182 on Stat3 transcriptional activity. We used mouse fibroblasts transformed by the viral Src oncoprotein (NIH3T3/vSrc) that harbor constitutive Stat3 activation, which were transiently transfected with the Stat3-dependent luciferase reporter, pLucTKS3 [25, 30]. Transfected cells were treated with H182 and the luciferase activity was assayed in the cytosolic extract preparations of equal total protein [12, 13, 30]. […]
as §1, §2

CYP2C9 = molecular target: T2, CYP2C9 (Homo sapiens, UniProt P11712); experiment: CYP inhibition, CYP2C9; format: in vitro ADME; conditions: read-out: CYP Inhibition CYP2C9 % Inh at 10 μM
T2 construct: Eurofins-CEREP (contract research organisation that ran the assay)
Procedure: The in vivo activity of a compound is influenced by its overall bioavailability, which is also driven by parameters, such as solubility, permeability, and metabolism. […] These values are all above the industry cut-off of 60 μg/ml. […] It has CLint in human hepatocytes of 16 μL/min/10^6 cells, which falls into moderate stability range [43].

T1 sequence (P40763 127-711 C426A): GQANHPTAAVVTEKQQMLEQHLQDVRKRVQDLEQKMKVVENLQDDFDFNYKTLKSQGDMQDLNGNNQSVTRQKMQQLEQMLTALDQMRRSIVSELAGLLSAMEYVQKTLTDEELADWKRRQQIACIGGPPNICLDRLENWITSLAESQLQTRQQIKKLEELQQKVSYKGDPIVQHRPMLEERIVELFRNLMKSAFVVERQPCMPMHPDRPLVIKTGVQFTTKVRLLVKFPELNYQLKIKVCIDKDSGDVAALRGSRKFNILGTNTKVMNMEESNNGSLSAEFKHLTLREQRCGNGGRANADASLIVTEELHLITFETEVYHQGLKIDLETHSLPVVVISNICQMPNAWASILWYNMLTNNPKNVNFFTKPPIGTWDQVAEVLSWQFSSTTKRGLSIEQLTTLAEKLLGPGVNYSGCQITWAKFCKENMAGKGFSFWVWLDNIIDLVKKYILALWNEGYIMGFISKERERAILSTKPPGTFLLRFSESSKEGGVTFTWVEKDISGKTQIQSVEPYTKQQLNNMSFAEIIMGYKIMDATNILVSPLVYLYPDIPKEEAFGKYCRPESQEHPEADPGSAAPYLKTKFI
T2 sequence (P11712 whole entry, species assumed): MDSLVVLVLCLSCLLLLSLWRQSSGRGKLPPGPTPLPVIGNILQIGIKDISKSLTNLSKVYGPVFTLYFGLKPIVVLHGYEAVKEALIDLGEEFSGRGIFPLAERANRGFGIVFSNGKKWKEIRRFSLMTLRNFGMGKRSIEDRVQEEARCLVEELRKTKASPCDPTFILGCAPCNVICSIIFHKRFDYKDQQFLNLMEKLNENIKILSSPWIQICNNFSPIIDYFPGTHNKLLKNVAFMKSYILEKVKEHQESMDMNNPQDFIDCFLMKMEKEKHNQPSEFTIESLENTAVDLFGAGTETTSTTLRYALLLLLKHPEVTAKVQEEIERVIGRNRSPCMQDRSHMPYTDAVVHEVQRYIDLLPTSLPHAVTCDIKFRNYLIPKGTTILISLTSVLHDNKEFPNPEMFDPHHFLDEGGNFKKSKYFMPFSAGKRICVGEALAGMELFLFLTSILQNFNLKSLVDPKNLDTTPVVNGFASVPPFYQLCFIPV

For `O=C([C@H]1CCN1S(=O)(=O)c1c(F)c(F)c(F)c(F)c1F)N(Cc1ccc(C2CCCCC2)cn1)c1ccc2c(=O)[nH]ncc2c1` [Compound H182], the “Effect on DNA-binding activity of pYStat3C426A” value (pYStat3C426A; 3 μM H182, 30 min) was “unaffected”, the “Effect on pYStat3C426A activity” value (pYStat3C426A; 10 μM H182) was “near complete inhibition” and the pIC50 (pYStat3C426A; EMSA, 0–50 μM H182, 30 min) was 5.22. The “Effect on Stat3-driven luciferase reporter expression (pLucTKS3)” value [1] was “dose-dependent inhibition” and the inhibition at 10 µM (CYP2C9) was 33%.
